How the values were obtained:
Treg expansion = Treg expansion with PBMC-derived DCs of healthy volunteers; assay type: cell-based, human; details: cells from healthy volunteers
breast cancer cell lines = test: Proliferation of breast cancer cell lines; assay type: cell-based
Description: Protective attributes of NR0B2 are likely due to its expression in myeloid cells. […] Among human PBMCs, various subtypes of dendritic cells (DCs) and monocyte populations had elevated expression of NR0B2.

4T1 tumors = test: Orthotopic 4T1 primary tumor growth; assay type: in vivo, mouse; details: DSHN combined with αPDL1
Description: FIG. 3A-3F. DSHN, a tool small molecule agonist of NR0B2 reduces macrophage/dendritic cell induced Treg expansion and tumor growth in murine models. […] (B) Dendritic cells (left-CD11B^+; CD11C^+) and CD4^+ T cells (right) were isolated from MMTV-PyMT tumors by FACS, and treated with vehicle or DSHN for 3d. The resulting frequency of Treg (CD4^+; CD25^+; FoxP3^+) was quantified by flow cytometry (right graph), (N=3-5/group, t test). […] The percentage of divided CD8+ T cells in the second round was quantified. (D) DSHN increases efficacy of αPDL1 therapy on orthotopic E0771 tumors. An optimal number of E0771 cells were grafted into FoxP3-EGFP mice and allowed to grow until tumors reached 100 mm^3. […] At the end of the study, lungs were removed and imaged ex vivo, quantified data indicated (N=10, 1-way ANOVA followed by Newman-Keuls multiple comparison test). […]
We then evaluated DSHN in a model where a low, suboptimal number of E0771-luc cells were grafted orthotopically. […] Treatment was ceased after 18 days and mice were monitored through time. […] We next assessed the effects of DSHN combined with αPDL1 on growth of primary tumors (optimal number of cells used to establish graft). […] We then evaluated the ability of DSHN to impact established metastatic disease—a stage that is refractory to standard of care therapy and immune checkpoint blockade. […]

[1] = system: dendritic cells from MMTV-PyMT tumors; test: DCs (CD11B+; CD11C+) isolated from MMTV-PyMT tumors, treated ex vivo; assay type: cell-based, mouse
Description: FIG. 3A-3F. DSHN, a tool small molecule agonist of NR0B2 reduces macrophage/dendritic cell induced Treg expansion and tumor growth in murine models. […] (B) Dendritic cells (left-CD11B^+; CD11C^+) and CD4^+ T cells (right) were isolated from MMTV-PyMT tumors by FACS, and treated with vehicle or DSHN for 3d. The resulting frequency of Treg (CD4^+; CD25^+; FoxP3^+) was quantified by flow cytometry (right graph), (N=3-5/group, t test). […] The percentage of divided CD8+ T cells in the second round was quantified. (D) DSHN increases efficacy of αPDL1 therapy on orthotopic E0771 tumors. An optimal number of E0771 cells were grafted into FoxP3-EGFP mice and allowed to grow until tumors reached 100 mm^3. Mice were euthanized on day 19 (waterfall plot, Fisher's exact test). (E) DSHN increases efficacy of αPDL1 therapy on orthotopic 4T1 tumors. 4T1 cells were orthotopically grafted into mice and allowed to establish for 5d prior to treatment start. Mice were euthanized on day 16 (waterfall plot, Fisher's exact test). (F) DSHN reduces metastatic outgrowth of 4T1 tumors and enhances efficacy of αPDL1 compared to placebo (p) (2-way ANOVA followed by Šidák's multiple comparison test for day 16). 4T1 cells were grafted intravenously, and lung metastatic lesions allowed to establish for 3d before treatment commenced. At the end of the study, lungs were removed and imaged ex vivo, quantified data indicated (N=10, 1-way ANOVA followed by Newman-Keuls multiple comparison test). Representative luciferase images shown to the right. * or different letters denote P<0.05 using indicated statistical test.
Since myeloid cells are thought to have been uniquely polarized within the tumor microenvironment, and in order to determine whether DSHN could overcome this, we isolated DCs (CD11B^+; CD11C^+) from MMTV-PyMT tumors. […] Cd4^+ T cells expanded in co-culture with DSHN pre-treated BMDMs had decreased suppressive capacity in terms of secondary CD8+ expansion (FIG. 3C).

Lewis Lung tumors = Lewis Lung tumors grown in the flank; assay type: in vivo, mouse
Description: FIG. 7A-7I. DSHN-OMe reduces tumor and metastatic growth in murine models, in a myeloid cell-NR0B2 dependent manner. (A) E0771 cells were grafted into control mice (NR0B2^+/+; LysMCre^+) or mice where NR0B2 was knocked out in myeloid immune cells (NR0B2^fl/fl; LysMCre^+). 8 days post-graft, daily treatment with placebo or DSHN-OMe was initiated and subsequent tumor growth followed through time. Different letters denote statistical difference on the final measurement (day 21, 2-Way ANOVA followed by Šidák's post-hoc, N=5-8). (B) Waterfall plot illustration of data in (A) showing tumor volume at final day of measurement. Asterisk indicates significant difference (Chi-squared test, P<0.05). (C) Lewis Lung cells were grafted into control mice (NR0B2^+/+; LysMCre^+) or mice where NR0B2 was knocked out in myeloid immune cells (NR0B2^fl/fl; LysMCre^+). 10 days post-graft, daily treatment with placebo or DSHN-OMe was initiated and subsequent tumor growth followed through time. […] (G) EMT6 metastatic lungs were assessed for Ki67 mRNA and (H) FOXP3 mRNA. (I) EMT6 metastatic lungs were assessed for CD8+ cytotoxic T cells (CD8+). […]
Since Tregs are considered a problem common to many solid tumor types, we reasoned that DSHN-OMe should have broad efficacy. To test this, we evaluated the ability of DSHN-OMe to influence the growth of murine Lewis Lung tumors grown in the flank.

Compound | Treg expansion, human PBMC-derived DCs (Treg expansion) | Proliferation of breast cancer cell lines (breast cancer cell lines) | Growth of established 4T1 tumors, combined with αPDL1 (4T1 tumors) | Treg expansion, tumor DCs co-cultured with CD4+ T cells [1] | PD-L1 positivity of tumor DCs ([1]; cultured with DSHN followed by LPS and IFNγ) | Viability of tumor DCs ([1]; versus vehicle treated DCs from the same tumor) | Lewis Lung tumor growth (Lewis Lung tumors; NR0B2-replete mice, daily treatment from day 10, versus placebo) | Lewis Lung anti-tumor effect, dependence on myeloid NR0B2 (Lewis Lung tumors; NR0B2fl/fl, LysMCre+ versus replete mice)
CCN(CC)S(=O)(=O)c1cccc2cc(C(=O)O)c(O)cc12 [DSHN, reference compound] | decreased Treg expansion | no effect on proliferation | decreased growth | decreased expansion of Treg cells | decreased PD-L1 positivity | increased viability | – | –
CCN(CC)S(=O)(=O)c1cccc2cc(C(=O)OC)c(O)cc12 [DSHN-OMe, Methyl 5-(N,N-diethylsulfamoyl)-3-hydroxy-2-naphthoate] | – | – | – | – | – | – | significantly reduced tumor growth | only observed in mice with replete myeloid cell expression of NR0B2

Source: patent US20260257992A1, “AGONISTS OF SMALL HETERODIMER PARTNER FOR CANCER THERAPY” (THE BOARD OF TRUSTEES OF THE UNIVERSITY OF ILLINOIS, priority 2023, published 2026)
